Measurements as given in patent US20250270218A1, “IMIDAZ0[1,2-A]PYRIMIDINE-5(1 H)-ONES AS WRN INHIBITORS” (Incyte Corporation, priority 2023, published 2025).

Tests used:
WRN [1] = biological target: T1, WRN (Homo sapiens, UniProt Q14191); experiment: WRN Helicase activity assay (fluorescence DNA unwinding); assay type: biochemical; conditions: 1-hr pre-incubation with enzyme; 25 nM forked dsDNA, 100 μM ATP, 1 nM WRN; geometric mean of at least 2 replicates
T1 construct: A His-tagged construct of WRN (AA S2-S1235) was produced and used for the ATPase assay; made in house; host or cells: Sf9 insect cells (baculovirus, pFastBac1)
T1 sequence (Q14191 2-1235): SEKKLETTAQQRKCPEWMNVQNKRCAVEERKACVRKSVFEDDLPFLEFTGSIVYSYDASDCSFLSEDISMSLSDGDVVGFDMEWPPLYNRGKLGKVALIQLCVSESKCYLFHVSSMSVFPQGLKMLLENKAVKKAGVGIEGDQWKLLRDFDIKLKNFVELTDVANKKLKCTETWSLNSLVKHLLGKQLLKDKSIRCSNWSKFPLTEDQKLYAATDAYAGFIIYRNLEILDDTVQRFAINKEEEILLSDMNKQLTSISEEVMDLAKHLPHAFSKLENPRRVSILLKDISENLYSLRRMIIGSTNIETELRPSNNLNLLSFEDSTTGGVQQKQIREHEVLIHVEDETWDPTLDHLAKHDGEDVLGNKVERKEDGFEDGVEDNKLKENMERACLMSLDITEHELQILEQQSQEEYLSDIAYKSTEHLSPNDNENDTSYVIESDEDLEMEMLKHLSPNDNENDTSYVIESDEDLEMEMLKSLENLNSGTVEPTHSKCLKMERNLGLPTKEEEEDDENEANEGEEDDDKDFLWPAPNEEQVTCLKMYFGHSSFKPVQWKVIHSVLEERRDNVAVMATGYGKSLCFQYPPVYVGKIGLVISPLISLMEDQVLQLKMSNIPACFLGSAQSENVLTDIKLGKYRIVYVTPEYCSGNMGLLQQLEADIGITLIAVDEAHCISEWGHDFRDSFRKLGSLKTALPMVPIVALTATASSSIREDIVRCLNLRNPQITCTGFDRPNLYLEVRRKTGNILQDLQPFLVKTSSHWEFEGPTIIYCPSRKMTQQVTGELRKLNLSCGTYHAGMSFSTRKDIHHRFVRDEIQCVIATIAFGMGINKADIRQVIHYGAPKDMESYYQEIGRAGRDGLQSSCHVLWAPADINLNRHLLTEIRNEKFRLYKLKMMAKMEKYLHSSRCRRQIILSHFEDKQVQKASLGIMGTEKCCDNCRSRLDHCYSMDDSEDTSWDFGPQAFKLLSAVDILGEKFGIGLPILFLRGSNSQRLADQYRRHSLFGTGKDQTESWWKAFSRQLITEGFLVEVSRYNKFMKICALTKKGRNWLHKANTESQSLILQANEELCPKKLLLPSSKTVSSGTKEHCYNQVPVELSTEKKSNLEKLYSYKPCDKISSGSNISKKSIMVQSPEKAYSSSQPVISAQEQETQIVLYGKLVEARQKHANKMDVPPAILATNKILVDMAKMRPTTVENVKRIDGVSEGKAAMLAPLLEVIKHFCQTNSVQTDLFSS
Experimental: Compounds of the examples were tested for WRN helicase activity. DNA encoding the target protein, 6×HIS-TEV-WRN-517-945, was produced, cloned, and transfected as detailed in Example D. To determine the inhibitory properties of the compounds, a 384 wells plate-based Helicase assay was set up to measure the extent of DNA unwinding (Helicase) activity of WRN. The WRN Helicase assay was designed to measure increase in fluorescence signal using a fluorescence based, donor-quencher paired forked dsDNA oligomer substrate (custom synthesis from Sigma-Aldrich) prepared by annealing equal amounts of oligo GPat-1 ([BHQ2][…]) and oligo GPat-2 ([…][TAM]). Continuous measurement of fluorescent signal was used to optimize the buffer conditions, concentration of enzyme (WRN), concentration of substrates (ATP & dsDNA), and the linearity of the Helicase reaction. All solutions were prepared in the following assay buffer: 50 mM Tris-HCl, pH-7.5, 2 mM MgCl2, 50 mM NaCl, 1 mM EGTA, 0.01% P-20, 0.05% BSA, and 2 mM DTT prepared with nuclease free water.
A serial dilution (1:3 scheme) of the compounds was prepared in neat DMSO and 100 nL of the compounds was dispensed in the Greiner black low volume (Greiner #784076) 384 wells assay plate. A 1-hr pre-incubation of the compounds with enzyme was included. A His-tagged construct of WRN (AA S2-S1235) was produced and used for the ATPase assay. Maximum inhibition control wells were set up with the addition of only assay buffer, and no inhibition control wells were set up with neat DMSO without test compounds. The reaction was initiated by addition of 5 μL substrate mix (200 μM ultrapure ATP, and 50 nM dsDNA prepared in assay buffer) and incubated at 25° C. for 35 min. A typical Helicase reaction consists of 25 nM forked dsDNA, 100 μM ATP, and 1 nM WRN prepared in assay buffer. The WRN Helicase reaction was quenched by the addition of 5 μL ‘STOP’ solution containing 100 mM EDTA (final EDTA concentration 33.33 mM) prepared in assay buffer. The plates were read on BMG PHERAstar FSX using 540/590 module to measure an increase of fluorescence. Data analysis was carried out using the Genedata software following % of control normalization. Fitting parameters include dose response IC50, Hill slope (n), maximum inhibition (S∞), and minimum inhibition (S0). The reported IC50 values for compounds in this invention are the geometric means of at least 2 independent replicates.

WRN [2] = biological target: T1, WRN; experiment: WRN ATPase activity assay (ADP-Glo); assay type: biochemical; conditions: 1-hr pre-incubation with enzyme; 25 nM forked dsDNA, 100 μM ATP, 1 nM WRN; geometric mean of at least 2 replicates
Experimental: Compounds of the Examples were tested for WRN ATPase activity. WRN ATPase activity catalyzes ATP hydrolysis to produce ADP and phosphate. DNA encoding the target protein, 6×HIS-TEV-WRN-517-945, was produced, cloned, and transfected as detailed in Example D. The amount of ADP produced was measured using ADP-Glo™ Kinase Assay kit from Promega Corporation in a Greiner white regular volume 384 wells assay plate (Greiner #781075). Data was normalized to a standard curve generated using various ADP concentrations and the corresponding luminescent signal intensities at each concentration. The assay conditions were optimized for enzyme concentration (WRN), substrate concentrations (ATP & dsDNA), and the linearity of the ATPase reaction, in the following assay buffer: 50 mM Tris-HCl, pH-7.5, 2 mM MgCl2, 50 mM NaCl, 1 mM EGTA, 0.01% P-20, 0.05% BSA, and 2 mM DTT prepared with nuclease free water.
A serial dilution (1:3 scheme) of the compounds were prepared in neat DMSO, with 100 nL of the compounds dispensed in the 384 wells assay plate. A 1-hr pre-incubation of the compounds with enzyme was included. A His-tagged construct of WRN (AA S2-S1235) was produced and used for the ATPase assay. Maximum inhibition control wells were set up with the addition of only assay buffer, and no inhibition control wells were set up with neat DMSO without test compounds. The reaction was initiated by addition of 5 μL substrate mix (200 μM ultrapure ATP, and 50 nM dsDNA prepared in assay buffer) and incubated at 25° C. for 35 min. A forked dsDNA oligomer substrate was prepared by annealing equal amounts of oligo GPat-1 ([BHQ2][…]) and oligo GPat-2 ([…][TAM]) and was used as dsDNA substrate for WRN ATPase assay. A typical ATPase reaction consists of 25 nM forked dsDNA, 100 μM ATP, and 1 nM WRN prepared in assay buffer. The WRN ATPase reaction was stopped by the addition of 5 μL of ADP-Glo Reagent from ADP-Glo™ Kinase Assay kit and incubated for 40 min to deplete the unreacted ATP. Afterwards, 5 μL of Kinase Detection Reagent from the ADP-Glo™ Kinase Assay kit was added and incubated for 1 hr for the development of luminescence signal.
Luminesce signals were measured on BMG PHERAstar FSX using luminescence protocol. Data analysis was carried out using Genedata software following % of control normalization. Fitting parameters include dose response IC50, Hill slope (n), maximum inhibition (S∞), and minimum inhibition (S0). The reported IC50 values for compounds in this invention are the geometric means of at least 2 independent replicates.

| IC50 (WRN [1]) [nM] | IC50 (WRN [2]) [nM] | SMILES |
| --- | --- | --- |
| < 100 | < 100 | C=CC(=O)Nc1ccccc1-c1c(C)nc2n(CC(=O)Nc3ccc(C(F)(F)F)cc3)c(CC)c(-c3ccc(C(=O)NCC)cc3)c(=O)n12 [Example 9, 4-(3-(2-Acrylamidophenyl)-7-ethyl-2-methyl-5-oxo-8-(2-oxo-2-((4-(trifluoromethyl)phenyl)amino)ethyl)-5,8-dihydroimidazo[1,2-a]pyrimidin-6-yl)-N-ethylbenzamide] |
| 100 to 500 | 100 to 500 | C=CC(=O)Nc1ccccc1-c1c(C)nc2n(CC(=O)Nc3ccc(F)cc3)c(CC)c(-c3ccccc3)c(=O)n12 [Example 6, N-(2-(7-Ethyl-8-(2-((4-fluorophenyl)amino)-2-oxoethyl)-2-methyl-5-oxo-6-phenyl-5,8-dihydroimidazo[1,2-a]pyrimidin-3-yl)phenyl)acrylamide] |
| < 100 | < 100 | C=CC(=O)Nc1ccccc1-c1c(CC)n(CC(=O)Nc2ccc(F)cc2)c2nc(C)c(C)n2c1=O [Example 3, N-(2-(7-Ethyl-8-(2-((4-fluorophenyl)amino)-2-oxoethyl)-2,3-dimethyl-5-oxo-5,8-dihydroimidazo[1,2-a]pyrimidin-6-yl)phenyl)acrylamide] |
| < 100 | < 100 | C=CC(=O)Nc1ccccc1-c1c(C)nc2n(CC(=O)Nc3ccc(C(F)(F)F)cc3)c(CC)c(-c3ccc(C(=O)NC)nc3)c(=O)n12 [Example 10, 5-(3-(2-Acrylamidophenyl)-7-ethyl-2-methyl-5-oxo-8-(2-oxo-2-((4-(trifluoromethyl)phenyl)amino)ethyl)-5,8-dihydroimidazo[1,2-a]pyrimidin-6-yl)-N-methylpicolinamide] |
| 100 to 500 | 100 to 500 | C=CC(=O)Nc1ccccc1-c1c(CC)n(CC(=O)Nc2ccc(C(F)(F)F)cc2)c2nc(C)c(-c3ccccc3)n2c1=O [Example 5, N-(2-(7-ethyl-2-methyl-5-oxo-8-(2-oxo-2-((4-(trifluoromethyl)phenyl)amino)ethyl)-3-phenyl-5,8-dihydroimidazo[1,2-a]pyrimidin-6-yl)phenyl)acrylamide] |
| 100 to 500 | 100 to 500 | C=CC(=O)Nc1ccccc1-c1c(CC)n(CC(=O)Nc2ccc(C(F)(F)F)cc2)c2nc(-c3ccccc3)cn2c1=O [Example 2, N-(2-(7-Ethyl-5-oxo-8-(2-oxo-2-((4-(trifluoromethyl)phenyl)amino)ethyl)-2-phenyl-5,8-dihydroimidazo[1,2-a]pyrimidin-6-yl)phenyl)acrylamide] |
| 100 to 500 | 100 to 500 | C=CC(=O)Nc1ccccc1-c1c(CC)n(CC(=O)Nc2ccc(C(F)(F)F)cc2)c2nc(C)c(C)n2c1=O [Example 1, N-(2-(7-ethyl-2,3-dimethyl-5-oxo-8-(2-oxo-2-((4-(trifluoromethyl)phenyl)amino)ethyl)-5,8-dihydroimidazo[1,2-a]pyrimidin-6-yl)phenyl)acrylamide] |
| < 100 | < 100 | C=CS(=O)(=O)Nc1ccccc1-c1c(C)nc2n(CC(=O)Nc3ccc(F)cc3)c(CC)c(-c3ccccc3)c(=O)n12 [Example 7, 2-(7-Ethyl-2-methyl-5-oxo-6-phenyl-3-(2-(vinylsulfonamido)phenyl)imidazo[1,2-a]pyrimidin-8(5H)-yl)-N-(4-fluorophenyl)acetamide] |
| < 100 | < 100 | C=CC(=O)Nc1ccccc1-c1c(C)nc2n(CC(=O)Nc3ccc(C(F)(F)F)cc3)c(CC)c(C)c(=O)n12 [Example 8, N-(2-(7-Ethyl-2,6-dimethyl-5-oxo-8-(2-oxo-2-((4-(trifluoromethyl)phenyl)amino)ethyl)-5,8-dihydroimidazo[1,2-a]pyrimidin-3-yl)phenyl)acrylamide] |
| 100 to 500 | 100 to 500 | C=CC(=O)Nc1ccccc1-c1c(CC)n(CC(=O)Nc2ccc(F)cc2Cl)c2nc(C)c(C)n2c1=O [Example 4, N-(2-(8-(2-((2-chloro-4-fluorophenyl)amino)-2-oxoethyl)-7-ethyl-2,3-dimethyl-5-oxo-5,8-dihydroimidazo[1,2-a]pyrimidin-6-yl)phenyl)acrylamide] |
